Structures can show the parent of a compound that is named as a salt. Where two headings read alike, the source gives them in different places. Non-standard residues stand in square brackets, D forms with d. Residues, ends and D or L forms follow the SMILES beside them.
What was measured:
[1] = test system: S. aureus (MRSA) ATCC 33591; assay type: cell-based, Staphylococcus aureus; conditions: Table 9
How it was run: (§1)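 MICs come from NCCLS-style (M7-A4) dilution testing, mostly microdilution, with an inoculum near 2.5×10^5 cfu/ml from 4000-fold-diluted overnight cultures. Peptide series were 2-fold steps spanning roughly 400–2 μg/ml, prepared in 9% aqueous sucrose with 5% DMSO.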

murine red blood cells = test: Red blood cell hemolysis; assay type: cell-based, mouse
How it was run: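 Hemolysis read as A560 of supernatant, scaled between saline (0%) and 1% Triton X-100 (100%) controls; peptides were serially diluted onto 5% murine red cells in saline plus 10% FBS and incubated 30 min at 37° C.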

[2] = test system: vancomycin-resistant Enterococus faecalis (VRE)(ATCC 51575); assay type: cell-based, Enterococcus faecalis; set-up: key to VRE (in vitro activity): peptide concentration in μg/ml (broth dilution assay); conditions: Table 9
How it was run: as §1

[3] = media b: cation adjusted Meuller Hinton broth (MHBII)
[4] = media c: Brain Heart Infusion (BHI)
[5] = media a: anti-microbial media-3 (AM-3)

SMILES	MRSA (in vitro activity) [1, 3]	RBC Hemolysis (HD50) (murine red blood cells)	VRE (in vitro activity) [2, 4]	MRSA (in vitro activity) [1, 5]	VRE (in vitro activity) ([2]; media a: AM-3)	VRE (in vitro activity) ([2]; media b: MHBII)
CC(C)C[C@H]1NC(=O)[C@H](Cc2c[nH]c3ccccc23)NC(=O)[C@@H](CCCCN)NC(=O)[C@H](CCCCN)NC(=O)[C@@H](CCCCN)NC(=O)[C@H](Cc2c[nH]c3ccccc23)NC(=O)[C@@H](CC(C)C)NC(=O)[C@H](Cc2c[nH]c3ccccc23)NC1=O [[KKKWLWLW-HCl] (17), cyclo[-(D-Lys-Lys-D-Lys-(Trp-D-Leu)2-Trp-]] (cyclo([dK]K[dK]W[dL]W[dL]W))	6	75	6			
CC(C)C[C@H]1NC(=O)[C@H](CCCCN)NC(=O)[C@@H](Cc2c[nH]cn2)NC(=O)[C@H](CCCCN)NC(=O)[C@@H](CC(C)C)NC(=O)[C@H](Cc2c[nH]c3ccccc23)NC(=O)[C@@H](CC(C)C)NC(=O)[C@H](Cc2c[nH]c3ccccc23)NC1=O [SEQ ID NO:50, [KHKLWLWL]] (cyclo(K[dH]K[dL]W[dL]W[dL]))	9	150	18			
N=C(N)NCCC[C@H]1NC(=O)[C@H](CCCCN)NC(=O)[C@@H](Cc2ccccc2)NC(=O)[C@H](Cc2c[nH]c3ccccc23)NC(=O)[C@@H](Cc2ccccc2)NC(=O)[C@H](CCCCN)NC(=O)[C@@H](Cc2ccccc2)NC(=O)[C@H](CCC(N)=O)NC1=O [SEQ ID NO:102, [KRQFKFWF]] (cyclo(K[dR]Q[dF]K[dF]W[dF]))	12	>200	12			
CC(C)C[C@H]1NC(=O)[C@H](C(C)C)NC(=O)[C@@H](CC(C)C)NC(=O)[C@H](C(C)C)NC(=O)[C@@H](CCCCN)NC(=O)[C@H](CO)NC(=O)[C@@H](CO)NC(=O)[C@H](CCCCN)NC1=O [SEQ ID NO:80, [KSSKVLVL]] (cyclo(K[dS]S[dK]V[dL]V[dL]))	22	>180	180			
CC(C)C[C@@H]1NC(=O)[C@@H](Cc2c[nH]c3ccccc23)NC(=O)[C@H](CCC(N)=O)NC(=O)[C@@H](CC(N)=O)NC(=O)[C@H](CCCCN)NC(=O)[C@@H](Cc2c[nH]c3ccccc23)NC1=O [SEQ ID NO:123, [KNQWLW]] (cyclo(K[dN]Q[dW]L[dW]))		>74		>74	>74	
CC(C)C[C@H]1NC(=O)[C@H](CCCCN)NC(=O)[C@@H](Cc2c[nH]cn2)NC(=O)[C@H](CCCCN)NC(=O)[C@@H](CC(C)C)NC(=O)[C@H](Cc2c[nH]c3ccccc23)NC(=O)[C@@H](CC(C)C)NC(=O)[C@H](Cc2ccccc2)NC1=O [SEQ ID NO:49, [KHKLFLWL]] (cyclo(K[dH]K[dL]F[dL]W[dL]))	12	200	25			
CC(C)C[C@H]1NC(=O)[C@H](CCCCN)NC(=O)[C@@H](CO)NC(=O)[C@H](CCCCN)NC(=O)[C@@H](CC(C)C)NC(=O)[C@H](Cc2ccc(O)cc2)NC(=O)[C@@H](CC(C)C)NC(=O)[C@H](Cc2ccc(O)cc2)NC1=O [SEQ ID NO:62, [KSKLYLYL]] (cyclo(K[dS]K[dL]Y[dL]Y[dL]))	100	>200	200			
C[C@H](O)[C@H]1NC(=O)[C@H](CCCNC(=N)N)NC(=O)[C@@H](CO)NC(=O)[C@H](CCC(N)=O)NC(=O)[C@@H](Cc2c[nH]cn2)NC(=O)[C@H](CCCCN)NC1=O [SEQ ID NO:130, [KHQSRT]] (cyclo(K[dH]Q[dS]R[dT]))	>200	>200	>200			
CC(C)C[C@H]1NC(=O)[C@H](Cc2c[nH]c3ccccc23)NC(=O)[C@@H](Cc2ccccc2)NC(=O)[C@H](CCCCN)NC(=O)[C@@H](Cc2ccccc2)NC(=O)[C@H](Cc2c[nH]c3ccccc23)NC(=O)[C@@H](CC(C)C)NC(=O)[C@H](Cc2c[nH]c3ccccc23)NC1=O [SEQ ID NO:40, [KFWLWLWF]] (cyclo(K[dF]W[dL]W[dL]W[dF]))		>44		33	>44	
CC[C@H](C)[C@@H]1NC(=O)[C@@H](Cc2c[nH]c3ccccc23)NC(=O)[C@H](CCCCN)NC(=O)[C@@H](CCCNC(=N)N)NC(=O)[C@H](C)NC(=O)[C@@H](CC(C)C)NC1=O [SEQ ID NO:114, [KWILAR]] (cyclo(K[dW]I[dL]A[dR]))	50	>200	>200			
CC(C)C[C@H]1NC(=O)[C@H](Cc2c[nH]c3ccccc23)NC(=O)[C@@H](Cc2c[nH]c3ccccc23)NC(=O)[C@H](CCCCN)NC(=O)[C@@H](CO)NC(=O)[C@H](CCCCN)NC(=O)[C@@H](CC(C)C)NC(=O)[C@H](Cc2c[nH]c3ccccc23)NC1=O [SEQ ID NO:67, [KWWLWLKS]] (cyclo(K[dW]W[dL]W[dL]K[dS]))	7	>153				10
CC(C)C[C@H]1NC(=O)[C@H](CCCCN)NC(=O)[C@@H](CC(C)C)NC(=O)[C@H](CCCCN)NC(=O)[C@@H](CC(C)C)NC(=O)[C@H](CCCCN)NC(=O)[C@@H](CC(C)C)NC(=O)[C@H](CCCCN)NC1=O [SEQ ID NO:4, KLKLKLKL] (cyclo(K[dL]K[dL]K[dL]K[dL]))	>200	>200	>200			
CC(C)C[C@@H]1NC(=O)[C@@H](Cc2c[nH]c3ccccc23)NC(=O)[C@H](CCCCN)NC(=O)[C@@H](CCCCN)NC(=O)[C@H](CCCCN)NC(=O)[C@@H](Cc2c[nH]c3ccccc23)NC1=O [SEQ ID NO:121, [KKKWLW]] (cyclo(K[dK]K[dW]L[dW]))		>111		23	51	
CC[C@H](C)[C@@H]1NC(=O)[C@@H](CO)NC(=O)[C@H](CCCCN)NC(=O)[C@@H]([C@H](C)O)NC(=O)[C@H]([C@@H](C)CC)NC(=O)[C@@H](CCCNC(=N)N)NC1=O [SEQ ID NO:132, [KSIRIT]] (cyclo(K[dS]I[dR]I[dT]))	>200	175	>200			
CC(C)C[C@@H]1NC(=O)[C@@H](Cc2c[nH]c3ccccc23)NC(=O)[C@H](CCC(N)=O)NC(=O)[C@@H](Cc2c[nH]c3ccccc23)NC(=O)[C@H](CCCCN)NC(=O)[C@@H](Cc2c[nH]c3ccccc23)NC1=O [SEQ ID NO:116, [KWQWLW]] (cyclo(K[dW]Q[dW]L[dW]))		>16		12	12	
CC(C)C[C@H]1NC(=O)[C@H](CCCCN)NC(=O)[C@@H](CO)NC(=O)[C@H](CCCCN)NC(=O)[C@@H](CC(C)C)NC(=O)[C@H](CCC(N)=O)NC(=O)[C@@H](CC(C)C)NC(=O)[C@H](CCC(N)=O)NC1=O [SEQ ID NO:104, [KSKLQLQL]] (cyclo(K[dS]K[dL]Q[dL]Q[dL]))	>200	>200	>200			
CC(C)[C@H]1NC(=O)[C@H](Cc2ccc(O)cc2)NC(=O)[C@@H](CO)NC(=O)[C@H](CCCCN)NC(=O)[C@@H](CO)NC(=O)[C@H](Cc2c[nH]c3ccccc23)NC1=O [SEQ ID NO:127, [KSYVWS]] (cyclo(K[dS]Y[dV]W[dS]))	>200	>200	>200			
CC(C)C[C@H]1NC(=O)[C@H](Cc2ccccc2)NC(=O)[C@@H](CCCCN)NC(=O)[C@H](CCCCN)NC(=O)[C@@H](CO)NC(=O)[C@H](CCCCN)NC(=O)[C@@H](CC(C)C)NC(=O)[C@H](Cc2ccccc2)NC1=O [SEQ ID NO:76, [KSKKFLFL]] (cyclo(K[dS]K[dK]F[dL]F[dL]))	5	100	10			
NCCCC[C@@H]1NC(=O)[C@@H](Cc2ccccc2)NC(=O)[C@H](Cc2c[nH]c3ccccc23)NC(=O)[C@@H](Cc2ccccc2)NC(=O)[C@H](CCCCN)NC(=O)[C@@H](CC(N)=O)NC(=O)[C@H](CCC(N)=O)NC(=O)[C@@H](CC(N)=O)NC1=O [SEQ ID NO:89, [KNQNKFWF]] (cyclo(K[dN]Q[dN]K[dF]W[dF]))	17	280	70			

From patent US20050107289A1, “Anti-microbial peptides and compositions” (priority 2001, published 2005)
